Measurements: patent US7087373B2, “Methods for determining plasma free drug concentration by direct measurement of binding affinity of protease inhibitors to plasma proteins” (priority 2001, dated 2006)
Read-outs that look alike come from different tables or passages of the source. Each block holds one molecule with its values, some of them ahead of it.

Legend:
HIV [1] = conditions: cited from earlier work
[2] = tested on: AAG (human α1-acid glycoprotein); assay: Isothermal titration calorimetry (ITC) of PI binding to AAG; conditions: for binding to AAG (titration profile): 80 μM PI into 12 μM, 1.45 mL of AAG; for Ka to AAG: ITC, Table 2; for Ka: binding to AAG, 37° C., 20 mM phosphate buffer, pH 7.4, average of duplicate experiments
Procedure: Briefly, the isothermal titration calorimetry (ITC) measurements are designed to obtain primarily the enthalpy of each complex formation and their stoichiometries. The heats of each reaction are determined by integration of the peaks observed. After the contribution from the heat of dilution of each injection is subtracted, the heat is plotted against the molar ratio of PIs to AAG. The binding constant (Ka), enthalpy of binding (ΔH^0), and stoichiometry (N) of the formation of complex are determined by fitting the binding isotherm against the binding equation using an independent binding model. Data analysis may be carried out with, for example, MicroCal ORIGN software, usually provided with the instrument.
Binding experiments were run using Isothermal Titration Calorimetry (ITC) to measure bound and unbound protease inhibitors.
Sample preparation: Solutions of AAG and its variants for ITC experiments were made up in 20 mM […] buffer, pH 7.4. All compounds were prepared as stock solution of 20 mM or 25 mM in DMSO and thereafter diluted to desired concentration in the same buffer. For all ITC experiments, the percentage of DMSO is below 1%.
ITC Experiments: The isothermal titration measurements of the binding of various PIs to AAG can be typically carried out at 37° C. using a VP-ITC titration calorimeter (MicroCal, Northampton, Mass.). The instrument was electrically calibrated by means of a standard electric pulse as recommended by the manufacturer. […] A 300 μL syringe was used for the titrant, mixing was effected by stirring this syringe at 300 rpm during equilibration and experiment. Typically after a preliminary 2 μL injection, 25 injections of 10 μL each were performed with a 250s interval between injections in a single titration. The reference cell of the calorimeter filled with water, acts as a thermal reference to the sample cell. […] All solutions were degassed before titrations to reduce the noise. The buffer contained 20 mM sodium phosphate, pH 7.4.
The area of each peak was integrated and corrected for the PI heat of dilution, which was estimated by a separate experiment by injecting the PI into the buffer. By fitting the titration curve with a nonlinear least-squares method, the enthalpy change ΔH^0, and the binding constant Ka of PI binding to AAG can be estimated with the assumption of an independent binding site model.
The values provided are the average of duplicate experiments. […] The ΔS^0 function was calculated from the standard thermodynamic relation ΔG^0=ΔH^0−TΔS^0.

AAG = assay: Calculation of IC50 in presence of AAG, free drug concentration and efficacy from ITC Ka; set-up: species or system human; conditions: for Free drug Concentration: calculated from ITC results; for IC50: read-out: Predicted IC50 @ 1 mg/mL AAG, calculated from Ka and IC50 without AAG
Source text: The quantification of the concentration of protease inhibitor in free form maybe performed by direct measurement of binding affinity Kd using isothermal titration calorimetry; and calculating the concentration of protease inhibitor in free form using the formula:
[formula] where Pt and Lt, are total protein and drug concentrations, and Kd is the equilibrium dissociation constant obtained in step (iii).
[formula] where PL is the protein-bound concentration of PIs, L0 and P0 are the total concentration of PIs and plasma protein, Kα and n are the binding constants and number of binding sites, respectively.
The quantification of the antiviral activity or EC50 value of a protease inhibitor in the presence of at least one plasma protein may be performed by direct measurement of binding affinity Ka using isothermal titration calorimetry; and calculating the antiviral activity or EC50 value of the protease inhibitor using the formula: […]
The quantification of the in vivo efficacy of a protease inhibitor in human plasma may be performed by direct measurement of binding affinity Ka using isothermal titration calorimetry; calculating the concentration of protease inhibitor in free form using the formulas described above; and calculating the in vivo efficacy of the protease inhibitor in human plasma using the formula: […]

HIV [3] = assay: Antiviral assay in the absence of AAG (Table 2); assay type: cell-based; conditions: Human immunodeficiency virus 1
Source text: In table below, a data table with the binding affinity of 3 PI's to AAG (Ka), their free drug concentrations, calculated IC50s, and calculated efficacy were extracted from the ITC results and compared to IC50s from an antiviral assay in the absence of AAG.

HIV [4] = assay: Cell-based anti-HIV assay (tetrazolium-based, Pauwels et al.) in the absence of AAG and in the presence of 1 mg/mL AAG; conditions: change in experimental EC50, absence of AAG vs presence of 1 mg/mL AAG
Procedure: The values provided are the average of duplicate experiments. […] The standard free energies (ΔG^0) were obtained from the equation ΔG^0=−RT1nKa, in which the Ka is the binding constant at 37° C. The ΔS^0 function was calculated from the standard thermodynamic relation ΔG^0=ΔH^0−TΔS^0. […] Methods, 1988, 20(4), 309–21.

HIV [5] = conditions: in vivo, Fischl et al.; extensive protein binding; cited from earlier work
[6] = antiviral assay in the absence of AAG, read-out: IC50

SMILES: CC(C)[C@H](NC(=O)N(C)Cc1ccccn1)C(=O)N[C@@H](Cc1ccccc1)[C@H](O)[C@H](O)[C@H](Cc1ccccc1)NC(=O)[C@@H](NC(=O)N(C)Cc1ccccn1)C(C)C [A77003]
antiviral efficacy as the concentration of AAG was increased (HIV [1]; in vitro, Bilello et al.): decreased

SMILES: CC(C)CN(C[C@@H](O)[C@H](Cc1ccccc1)NC(=O)O[C@H]1CCOC1)S(=O)(=O)c1ccc(N)cc1 [APV, amprenavir]
binding to AAG (titration profile) [2]: binds to AAG accompanied with an exothermic heat effect

Free drug Concentration (AAG): 1190 nM | IC50 (AAG): 22.7 nM | Ka to AAG [2]: 2.19E+06 | IC50 (HIV [3]; [6]): 0.8 nM
SMILES: CC(C)CN(C[C@@H](O)[C@H](Cc1ccccc1)NC(=O)O[C@H]1CO[C@H]2OCC[C@H]21)S(=O)(=O)c1ccc2c(c1)OCO2 [Compound number 2]

SMILES: CC(C)CN(C[C@@H](O)[C@H](Cc1ccccc1)NC(=O)OC1CO[C@H]2OCC[C@@H]12)S(=O)(=O)c1ccc(N)cc1 (some centres unmarked) [Compound number 1]
Free drug Concentration (AAG): 1300 nM | IC50 (AAG): 74.6 nM | Ka to AAG [2]: 1.92E+06 | IC50 (HIV [3]): 3 nM

SMILES: CC(C)CN(C[C@@H](O)[C@H](Cc1ccccc1)NC(=O)[C@H](CC(N)=O)NC(=O)c1ccc2ccccc2n1)C(=O)NC(C)(C)C [SC-52151, telinavir]
Ka [2]: 2.38 ± 0.60 10^6M^−1 | antiretroviral activity in vitro (HIV [1]; Fischl et al.): potent | Fold Inc. EC50 (HIV [4]): 29.2 | clinical efficacy (HIV [5]): lack of clinical efficacy

Ka [2]: 5.77 ± 0.72 10^6M^−1 | Fold Inc. EC50 (HIV [4]): 37.1
SMILES: Cc1cccc(C)c1OCC(=O)N[C@@H](Cc1ccccc1)[C@@H](O)C[C@H](Cc1ccccc1)NC(=O)[C@H](C(C)C)N1CCCNC1=O [LPV, lopinavir]

Free drug Concentration (AAG): 1710 nM | IC50 (AAG): 8.25 nM | Ka to AAG [2]: 1.24E+06 | IC50 (HIV [3]; [6]): 0.5 nM
SMILES: COc1ccc(S(=O)(=O)N(CC(C)C)C[C@@H](O)[C@H](Cc2ccccc2)NC(=O)OC2CO[C@H]3OCC[C@@H]23)cc1 (some centres unmarked) [Compound number 3]

SMILES: CC(C)(C)NC(=O)[C@@H]1CN(Cc2cccnc2)CCN1C[C@@H](O)C[C@@H](Cc1ccccc1)C(=O)N[C@H]1c2ccccc2C[C@H]1O [IDV, indinavir]
binding to AAG (titration profile) [2]: does not bind to AAG | Ka [2]: No binding | Fold Inc. EC50 (HIV [4]): 1.0

Ka [2]: 1.55 ± 0.49 10^6M^−1 | Fold Inc. EC50 (HIV [4]): 18.9
SMILES: CC(C)c1nc(CN(C)C(=O)N[C@H](C(=O)N[C@@H](Cc2ccccc2)C[C@H](O)[C@H](Cc2ccccc2)NC(=O)OCc2cncs2)C(C)C)cs1 [RTV, ritonavir]

Ka [2]: 2.35 ± 0.42 10^6M^−1 | Fold Inc. EC50 (HIV [4]): 22.9
SMILES: Cc1c(O)cccc1C(=O)N[C@@H](CSc1ccccc1)[C@H](O)CN1C[C@H]2CCCC[C@H]2C[C@H]1C(=O)NC(C)(C)C [NFV, nelfinavir]

SMILES: CC(C)(C)NC(=O)[C@@H]1C[C@@H]2CCCC[C@@H]2CN1C[C@@H](O)[C@H](Cc1ccccc1)NC(=O)[C@H](CC(N)=O)NC(=O)c1ccc2ccccc2n1 [SQV, saquinavir]
Ka [2]: 0.34 ± 0.12 10^6M^−1 | Fold Inc. EC50 (HIV [4]): 5.6
